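All cell lines were grown in 96-well plates and treated with compound for 48 hours. The concentration for 50% growth inhibition is given as GI50. TGI: total growth inhibition.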
Legend:
Assay in all cases: NCI-60 cell line screen, 48 h
NCI-H23 lung = tested on: NCI-H23 lung
786-0 renal = tested on: 786-0 renal
EKVX NSCLC = tested on: EKVX NSCLC
SF-295 CNS = tested on: SF-295 CNS
M14 melanoma = tested on: M14 melanoma
NCI-H460 lung = tested on: NCI-H460 lung
SK-MEL-2 melanoma = tested on: SK-MEL-2 melanoma
HT29 colon = tested on: HT29 colon
A498 renal = tested on: A498 renal
IGROV1 ovarian = tested on: IGROV1 ovarian

SMILES | GI50 (NCI-H23 lung) | TGI (NCI-H23 lung) | GI50 (786-0 renal) | TGI (786-0 renal) | GI50 (EKVX NSCLC) | TGI (EKVX NSCLC) | GI50 (SF-295 CNS) | TGI (SF-295 CNS) | GI50 (M14 melanoma) | TGI (M14 melanoma) | GI50 (NCI-H460 lung) | TGI (NCI-H460 lung) | GI50 (SK-MEL-2 melanoma) | TGI (SK-MEL-2 melanoma) | GI50 (HT29 colon) | TGI (HT29 colon) | GI50 (A498 renal) | TGI (A498 renal) | GI50 (IGROV1 ovarian) | TGI (IGROV1 ovarian)
CN[C@@H](C)C(=O)N[C@H](C(=O)N1CCC[C@H]1C(=O)Nc1sc(-c2ncco2)nc1-c1ccccc1)C1CCCCC1 | 25.8 µM | > 100 µM | 28.2 µM | > 67.2 µM | 42.9 µM | > 100 µM | 52.9 µM | > 100 µM | 18.5 µM | 36.7 µM | 37.7 µM | > 100 µM | 16.3 µM | > 100 µM | 28.6 µM | 68.6 µM | 26.6 µM | > 88 µM | 47.5 µM | > 100 µM
OCC1OC(n2cnc3c(N/N=C\c4ccccn4)ncnc32)C(O)C1O (stereo not drawn) | 0.476 µM | > 100 µM | 0.256 µM | 1.01 µM | 0.49 µM | 97 µM | 0.936 µM | 16.5 µM | 0.426 µM | 3.89 µM | 0.384 µM | 4.53 µM | 0.611 µM | > 100 µM | 0.417 µM | > 100 µM | 0.762 µM | > 100 µM | 0.41 µM | 8.98 µM
O=C1OCC2=C1C(c1ccccc1)c1cc3c(cc1N2)OCO3 (stereo not drawn) | 0.0449 µM | > 100 µM | 0.055 µM | > 69.3 µM | 2.29 µM | > 100 µM | 0.0169 µM |  | 0.0276 µM | > 100 µM | 0.0354 µM |  | 0.494 µM | 41.7 µM | 0.0351 µM | > 59 µM | 0.0159 µM | 0.498 µM | 0.0816 µM | 50.2 µM
COc1ccc(-c2[nH]c3ccccc3c2-c2ccc(OC)cc2)cc1 | 6.26 µM | 26.2 µM | 2.95 µM | 7.64 µM | 5.05 µM | 42.9 µM | 3.33 µM | 14 µM | 3.9 µM | 14.8 µM | 3.65 µM | 14 µM | 8.31 µM | 25.6 µM | 2.99 µM | 11.9 µM | 4 µM | 12.8 µM | 11.2 µM | 27.5 µM
COC1C=COC2(C)Oc3c(C)c(O)c4c(c3C2=O)/C(=N/C2CCC(O)OC2C)C=C(NC(=O)/C(C)=C\C(=O)C2CC2C(O)C(C)C(O)C(C)C(OC(C)=O)C1C)C4=O (stereo not drawn) |  | 3.62 µM |  | 3.13 µM |  | 8.75 µM |  | 13.3 µM |  | 4.47 µM |  | 11.5 µM |  | 12.4 µM |  | 2.71 µM |  | 8.36 µM |  | 6.13 µM
O=C1NC(=O)C2C(=O)NC(=O)C1C2c1c(Cl)cccc1Cl (stereo not drawn) |  | > 100 µM |  | > 100 µM |  | > 100 µM |  | > 100 µM |  | > 100 µM |  | > 58.2 µM |  | > 100 µM |  | > 100 µM |  | > 100 µM |  | > 100 µM
O=C1OC(=O)C(=C\c2ccc3c(c2)OCO3)/C1=C/c1ccc2c(c1)OCO2 |  | > 100 µM |  | > 100 µM |  | > 100 µM |  | > 100 µM |  | > 100 µM |  | > 100 µM |  | > 100 µM |  | > 100 µM |  | > 100 µM |  | > 100 µM
O=C(NN1C(=O)CSC12CCCCC2)c1[nH]c2ccc(Br)cc2c1-c1ccccc1 | 19.4 µM | 41.5 µM | 18.9 µM | 38.9 µM | 48.2 µM | > 100 µM | 16.2 µM | 31.9 µM | 27 µM | 79.7 µM | 20.7 µM | 57.9 µM | 36.2 µM | > 100 µM | 13.9 µM | 31.5 µM | 24.1 µM | 60.5 µM | 11.3 µM | 28.6 µM
COC(=O)C1CC2CC(=NNC(N)=O)CC2C1 (stereo not drawn) |  | > 100 µM |  | > 100 µM |  | > 100 µM |  | > 100 µM |  | > 100 µM |  | > 100 µM |  | > 100 µM |  | > 100 µM |  | > 100 µM |  | > 100 µM
COc1cc2nc(N3CCCC3)nc(NCCc3ccccc3)c2cc1OC | 1.8 µM | 3.64 µM | 1.71 µM | 3.21 µM | 1.85 µM | 3.9 µM | 1.8 µM | 3.43 µM | 1.8 µM | 3.69 µM | 1.86 µM | 3.54 µM | 2.02 µM | 3.91 µM | 1.81 µM | 4.19 µM | 1.64 µM | 3.5 µM | 1.51 µM | 2.95 µM
CC(C)NCCCn1c(Sc2cc3c(cc2I)OCO3)nc2c(N)ncnc21 | 0.0897 µM | > 100 µM | 0.515 µM | > 100 µM | 2.53 µM | > 100 µM | 0.143 µM | 8.52 µM | 0.233 µM | 20.9 µM | 0.0576 µM | > 100 µM | 0.357 µM | > 83.2 µM | 0.0381 µM | > 83.2 µM | 0.435 µM | 5.6 µM | 0.0885 µM | 3.52 µM

— PubChem BioAssay (NCI)
